Reference: patent publication US20220332764A1, “T CELL EPITOPES OF HCMV AND USES OF THEREOF” (EBERHARD KARLS UNIVERSITÄT TÜBINGEN, priority 2019, published 2022)
Several values for one entry are separate records, joined by “and”; a condition that tells them apart may be missing. Equal values may be shown once. Read-outs that look alike come from different tables or passages of the source.

How the values were obtained:
[1] = tested on: CD8+ T cells of HLA-matched healthy donors; conditions: for Tetramer-staining: after 12 day amplification
[2] = tested on: PBMCs of healthy HCMV-seropositive donors; experiment: ex vivo IFNγ ELISpot without prestimulation; type: cell-based, human; conditions: for % Positive donors (ex vivo): IFNγ ELISpot ex vivo, donors previously tested positive; for ELISpot response rate (ex vivo): donors positively tested in ELISpots with 12d stimulation
Excerpt: (§1) PHA was used as positive control.

[3] = tested on: CD8+ / CD4+ T cells of donor PBMCs; experiment: Intracellular cytokine staining (ICS; IFNγ, TNFα, CD107a); type: cell-based, human; conditions: for Intracellular staining: responding T-cell subset; for Intracellular cytokine staining: responding T-cell subset after peptide stimulation
Excerpt: PHA was used as positive control. […] (Cytofix/Cytoperm, BD Biosciences).

[4] = tested on: PBMCs of healthy HCMV-seropositive donors; experiment: IFNγ ELISpot after 12 day stimulation (memory T-cell response); type: cell-based, human; conditions: for % Positive donors (after 12 days of stimulation): IFNγ ELISpot, HLA-matched seropositive donors; for ELISpot response rate (12 d stim.): 12-day amplification with IL-2 in vitro; for Positive donors as tested: positive / tested HLA-matched seropositive donors, positive: >10 spots/well and at least 3-fold negative control; for Binding to more than one HLA-I allotype: stimulated T cells of different donors harboring either of two well predicted alleles
Excerpt: as §1

Sequence: GLYTQPRWK (listed as Human cytomegalovirus) [SEQ ID NO: 67]
- Tetramer staining ([1]; Tested HLA A*03:01): positive
- Tetramer-staining [1]: Positive
- % Positive donors (ex vivo) [2]: 50.0%
- ELISpot response rate (ex vivo) ([2]; Tested HLA A*03:01): 50.0
- Intracellular staining ([3]; Tested HLA A*03:01): CD8
- Intracellular cytokine staining [3]: CD8
- % Positive donors (after 12 days of stimulation) [4]: 76.2%
- ELISpot response rate (12 d stim.) ([4]; Tested HLA A*03:01): 76.2
- Positive donors as tested [4]: 16/21

Sequence: GVLDAVWRV (listed as Human cytomegalovirus) [SEQ ID NO: 1]
- Tetramer staining ([1]; Tested HLA A*02:01): positive
- Tetramer-staining [1]: Positive
- % Positive donors (ex vivo) [2]: 50.0%
- ELISpot response rate (ex vivo) ([2]; Tested HLA A*02:01): 50.0
- Intracellular staining ([3]; Tested HLA A*02:01): CD8
- Intracellular cytokine staining [3]: CD8
- % Positive donors (after 12 days of stimulation) [4]: 72.2%
- ELISpot response rate (12 d stim.) ([4]; Tested HLA A*02:01): 72.2
- Positive donors as tested [4]: 13/18

Sequence: HETGVYQMW (listed as Human cytomegalovirus) [SEQ ID NO: 41]
- Tetramer staining ([1]; Tested HLA B*44:02): positive
- Tetramer-staining [1]: Positive
- % Positive donors (ex vivo) [2]: 62.5%
- ELISpot response rate (ex vivo) ([2]; Tested HLA B*44:02): 62.5
- Intracellular staining ([3]; Tested HLA B*44:02): CD8
- Intracellular cytokine staining [3]: CD8
- % Positive donors (after 12 days of stimulation) [4]: 65.4%
- ELISpot response rate (12 d stim.) ([4]; Tested HLA B*44:02): 65.4
- Positive donors as tested [4]: 17/26

Sequence: ITEIALDRY (listed as Human cytomegalovirus) [SEQ ID NO: 54]
- Tetramer staining ([1]; Tested HLA A*01:01): positive
- Tetramer-staining [1]: Positive
- % Positive donors (ex vivo) [2]: 14.3%
- ELISpot response rate (ex vivo) ([2]; Tested HLA A*01:01): 14.3
- Intracellular staining ([3]; Tested HLA A*01:01): CD8
- Intracellular cytokine staining [3]: CD8
- % Positive donors (after 12 days of stimulation) [4]: 58.3%
- ELISpot response rate (12 d stim.) ([4]; Tested HLA A*01:01): 58.3
- Positive donors as tested [4]: 14/24

Sequence: LPHERHREL (listed as Human cytomegalovirus) [SEQ ID NO: 100]
- Tetramer staining ([1]; Tested HLA B*08:01): positive
- Tetramer-staining [1]: positive
- % Positive donors (ex vivo) [2]: 85.7%
- ELISpot response rate (ex vivo) ([2]; Tested HLA B*08:01): 85.7
- Intracellular staining ([3]; Tested HLA B*08:01): CD8
- Intracellular cytokine staining [3]: CD8
- ELISpot response rate (12 d stim.) ([4]; Tested HLA B*08:01): 90.9
- Positive donors as tested [4]: 20/22 and 3/12
- Binding to more than one HLA-I allotype [4]: potentially able to bind to more than one HLA-I allotype

Sequence: LPLKMLNI (listed as Human cytomegalovirus) [SEQ ID NO: 87]
- Tetramer staining ([1]; Tested HLA B*51:01): positive
- Tetramer-staining [1]: Positive
- % Positive donors (ex vivo) [2]: 87.5%
- ELISpot response rate (ex vivo) ([2]; Tested HLA B*51:01): 87.5
- Intracellular staining ([3]; Tested HLA B*51:01): CD8
- Intracellular cytokine staining [3]: CD8
- % Positive donors (after 12 days of stimulation) [4]: 80.0%
- ELISpot response rate (12 d stim.) ([4]; Tested HLA B*51:01): 80.0
- Positive donors as tested [4]: 12/15

Sequence: LPYPRGYTL (listed as Human cytomegalovirus) [SEQ ID NO: 99]
- HLA restriction demonstrated by tetramer stainings [1]: B*08 and B*51 restriction
- Tetramer staining ([1]; Tested HLA B*08:01): positive
- Tetramer staining ([1]; Tested HLA B*51:01): positive
- Tetramer-staining [1]: positive
- % Positive donors (ex vivo) [2]: 16.7% and 33.3%
- ELISpot response rate (ex vivo) ([2]; Tested HLA B*08:01): 16.7
- ELISpot response rate (ex vivo) ([2]; Tested HLA B*51:01): 33.3
- Intracellular staining ([3]; Tested HLA B*08:01): CD8
- Intracellular staining ([3]; Tested HLA B*51:01): CD8
- Intracellular cytokine staining [3]: CD8
- Response in mismatch ELISpots ([4]; B*08-/B*51− PBMC samples): showed responses
- % Positive donors (after 12 days of stimulation) [4]: 68.8% and 62.5%
- ELISpot response rate (12 d stim.) ([4]; Tested HLA B*08:01): 68.8
- ELISpot response rate (12 d stim.) ([4]; Tested HLA B*51:01): 62.5
- Positive donors as tested [4]: 11/16 and 10/16
- Binding to more than one HLA-I allotype [4]: potentially able to bind to more than one HLA-I allotype

Sequence: NLVPMVATV (listed as Human cytomegalovirus) [SEQ ID NO: 101]
- Tetramer staining ([1]; Tested HLA A*02:01): positive
- ELISpot response rate (ex vivo) ([2]; Tested HLA A*02:01): 100.0
- Intracellular staining ([3]; Tested HLA A*02:01): CD8
- ELISpot response rate (12 d stim.) ([4]; Tested HLA A*02:01): 75.0

Sequence: NTDFRVLELY (listed as Human cytomegalovirus) [SEQ ID NO: 55]
- Tetramer staining ([1]; Tested HLA A*01:01): positive
- Tetramer-staining [1]: Positive
- % Positive donors (ex vivo) [2]: 0.0%
- ELISpot response rate (ex vivo) ([2]; Tested HLA A*01:01): 0.0
- Intracellular staining ([3]; Tested HLA A*01:01): CD8
- Intracellular cytokine staining [3]: CD8
- % Positive donors (after 12 days of stimulation) [4]: 56.3%
- ELISpot response rate (12 d stim.) ([4]; Tested HLA A*01:01): 56.3
- Positive donors as tested [4]: 9/16

Sequence: RTDPATLTAY (listed as Human cytomegalovirus) [SEQ ID NO: 53]
- Tetramer staining ([1]; Tested HLA A*01:01): positive
- Tetramer-staining [1]: Positive
- % Positive donors (ex vivo) [2]: 66.7%
- ELISpot response rate (ex vivo) ([2]; Tested HLA A*01:01): 66.7
- Intracellular staining ([3]; Tested HLA A*01:01): CD8
- Intracellular cytokine staining [3]: CD8
- % Positive donors (after 12 days of stimulation) [4]: 82.6%
- ELISpot response rate (12 d stim.) ([4]; Tested HLA A*01:01): 82.6
- Positive donors as tested [4]: 19/23

Sequence: RVKNRPIYR (listed as Human cytomegalovirus) [SEQ ID NO: 68]
- Tetramer staining ([1]; Tested HLA A*03:01): positive
- Tetramer-staining [1]: Positive
- % Positive donors (ex vivo) [2]: 33.3%
- ELISpot response rate (ex vivo) ([2]; Tested HLA A*03:01): 33.3
- Intracellular staining ([3]; Tested HLA A*03:01): CD8
- Intracellular cytokine staining [3]: CD8
- % Positive donors (after 12 days of stimulation) [4]: 60.9%
- ELISpot response rate (12 d stim.) ([4]; Tested HLA A*03:01): 60.9
- Positive donors as tested [4]: 14/23

Sequence: SENGNLQVTY (listed as Human cytomegalovirus) [SEQ ID NO: 40]
- Tetramer staining ([1]; Tested HLA B*44:02): positive
- Tetramer-staining [1]: Positive
- % Positive donors (ex vivo) [2]: 62.5%
- ELISpot response rate (ex vivo) ([2]; Tested HLA B*44:02): 62.5
- Intracellular staining ([3]; Tested HLA B*44:02): CD8
- Intracellular cytokine staining [3]: CD8
- % Positive donors (after 12 days of stimulation) [4]: 83.9%
- ELISpot response rate (12 d stim.) ([4]; Tested HLA B*44:02): 83.9
- Positive donors as tested [4]: 26/31

Sequence: SESEFIVRY (listed as Human cytomegalovirus) [SEQ ID NO: 43]
- Tetramer-staining [1]: Positive
- % Positive donors (ex vivo) [2]: 37.5%
- Intracellular cytokine staining [3]: CD8
- % Positive donors (after 12 days of stimulation) [4]: 40.0%
- Positive donors as tested [4]: 8/20

Sequence: SPRDAWIVL (listed as Human cytomegalovirus) [SEQ ID NO: 26]
- Tetramer staining ([1]; Tested HLA B*07:02): positive
- Tetramer-staining [1]: Positive
- % Positive donors (ex vivo) [2]: 20.0%
- ELISpot response rate (ex vivo) ([2]; Tested HLA B*07:02): 20.0
- Intracellular staining ([3]; Tested HLA B*07:02): CD8
- Intracellular cytokine staining [3]: CD8
- % Positive donors (after 12 days of stimulation) [4]: 68.2%
- ELISpot response rate (12 d stim.) ([4]; Tested HLA B*07:02): 68.2
- Positive donors as tested [4]: 15/22

Sequence: SPRHLYISL (listed as Human cytomegalovirus) [SEQ ID NO: 29]
- Tetramer staining ([1]; Tested HLA B*07:02): positive
- Tetramer-staining [1]: Positive
- % Positive donors (ex vivo) [2]: 0.0%
- ELISpot response rate (ex vivo) ([2]; Tested HLA B*07:02): 0.0
- Intracellular cytokine staining [3]: CD4/CD8
- % Positive donors (after 12 days of stimulation) [4]: 50.0%
- ELISpot response rate (12 d stim.) ([4]; Tested HLA B*07:02): 50.0
- Positive donors as tested [4]: 11/22

Sequence: SPSRDRFVQL (listed as Human cytomegalovirus) [SEQ ID NO: 27]
- Tetramer staining ([1]; Tested HLA B*07:02): positive
- Tetramer-staining [1]: Positive
- % Positive donors (ex vivo) [2]: 33.3%
- ELISpot response rate (ex vivo) ([2]; Tested HLA B*07:02): 33.3
- Intracellular cytokine staining [3]: Nega-
- % Positive donors (after 12 days of stimulation) [4]: 66.7%
- ELISpot response rate (12 d stim.) ([4]; Tested HLA B*07:02): 66.7
- Positive donors as tested [4]: 14/21

Sequence: TLIVNLVEV (listed as Human cytomegalovirus) [SEQ ID NO: 3]
- Tetramer staining ([1]; Tested HLA A*02:01): positive
- Tetramer-staining [1]: Positive
- % Positive donors (ex vivo) [2]: 25.0%
- ELISpot response rate (ex vivo) ([2]; Tested HLA A*02:01): 25.0
- Intracellular staining ([3]; Tested HLA A*02:01): CD8
- Intracellular cytokine staining [3]: CD8
- % Positive donors (after 12 days of stimulation) [4]: 55.0%
- ELISpot response rate (12 d stim.) ([4]; Tested HLA A*02:01): 55.0
- Positive donors as tested [4]: 11/20

Sequence: TPRVTGGGAM (listed as Human cytomegalovirus) [SEQ ID NO: 25]
- Tetramer staining ([1]; Tested HLA B*07:02): positive
- Tetramer-staining [1]: Positive
- % Positive donors (ex vivo) [2]: 100.0%
- ELISpot response rate (ex vivo) ([2]; Tested HLA B*07:02): 100.0
- Intracellular staining ([3]; Tested HLA B*07:02): CD8
- Intracellular cytokine staining [3]: CD8
- % Positive donors (after 12 days of stimulation) [4]: 81.6%
- ELISpot response rate (12 d stim.) ([4]; Tested HLA B*07:02): 81.6
- Positive donors as tested [4]: 31/38

Sequence: YADPFFLKY (listed as Human cytomegalovirus) [SEQ ID NO: 51]
- Tetramer staining ([1]; Tested HLA A*01:01): positive
- Tetramer-staining [1]: Positive
- % Positive donors (ex vivo) [2]: 90.9%
- ELISpot response rate (ex vivo) ([2]; Tested HLA A*01:01): 90.9
- Intracellular staining ([3]; Tested HLA A*01:01): CD8
- Intracellular cytokine staining [3]: CD8
- % Positive donors (after 12 days of stimulation) [4]: 100.0%
- ELISpot response rate (12 d stim.) ([4]; Tested HLA A*01:01): 100.0
- Positive donors as tested [4]: 15/15
